The term Ki denotes the dissociation constant of the complex between target and ligand, obtained from inhibition or displacement.

The source of these data is patent US7273880B2, “Selective NPY (Y5) antagonists” (H. Lunbeck A/S, priority 1999, dated 2007).

Structures are written as SMILES. Where a name gives a salt, the structure may show the parent alone.

This assay concerns the target T1, human Y5 receptor (hNPY-5) (Homo sapiens, UniProt Q15761).
T1 construct: expressed in transfected cells; host or cells: mouse fibroblast LM(tk-) cells, e.g. L-hY5-7 (ATCC CRL-11995)
T1 sequence (Q15761 1-445): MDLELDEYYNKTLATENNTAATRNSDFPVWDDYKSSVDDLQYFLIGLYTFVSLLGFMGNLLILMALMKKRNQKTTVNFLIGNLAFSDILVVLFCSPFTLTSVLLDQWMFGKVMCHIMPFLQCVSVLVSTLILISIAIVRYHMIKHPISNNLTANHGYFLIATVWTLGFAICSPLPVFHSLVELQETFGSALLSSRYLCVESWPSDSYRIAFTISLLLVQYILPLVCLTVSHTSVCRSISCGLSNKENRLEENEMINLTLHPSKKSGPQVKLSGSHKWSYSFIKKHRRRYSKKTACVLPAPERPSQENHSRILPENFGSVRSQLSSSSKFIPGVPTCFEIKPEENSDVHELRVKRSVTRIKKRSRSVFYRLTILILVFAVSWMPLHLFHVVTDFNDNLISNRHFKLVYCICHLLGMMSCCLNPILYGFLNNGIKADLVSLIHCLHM
Description: Radioligand binding to membranes, cloned human Y5 receptor. The conditions noted are these: cloned human NPY Y5 receptor, radioligand competition binding; Tables 1-3; read-out: Ki, nM hNPY-5. As to the method: Binding of the compounds of the present invention to human Y1, Y2, Y4, and Y5 receptors was evaluated using stably transfected 293 or LM(tk-) cells as described above. Stably transfected cell lines which may be used for binding assays include, for example, for the human Y1 receptor, 293-hY1-5 (deposited Jun. 4, 1996, under ATCC Accession No. CRL-12121), for the human Y2 receptor, 293-hY2-10 (deposited Jan. 27, 1994, under ATCC Accession No. CRL-11537), for the human Y4 receptor, L-hY4-3 (deposited Jan. 11, 1995, under ATCC Accession No. CRL-11779), and for human Y5 receptor, L-hY5-7 (deposited Nov. 15, 1995, under ATCC Accession No. CRL-11995). These cell lines were deposited with the American Type Culture Collection (ATCC), 10801 University Blvd., Manassas, Va. 20110-2209, U.S.A. under the provisions of the Budapest Treaty for the International Recognition of the Deposit of Microorganisms for the Purposes of Patent Procedure.
Membranes were harvested from COS-7 cells 48 hours after transient transfection. Adherent cells were washed twice in ice-cold phosphate buffered saline (138 mM NaCl, 8.1 mM Na2HPO4, 2.5 mM KCl, 1.2 mM KH2PO4, 0.9 mM CaCl2, 0.5 mM MgCl2, pH 7.4) and lysed by sonication in ice-cold sonication buffer (20 mM Tris-HCl, 5 mM EDTA, pH 7.7). Large particles and debris were cleared by low speed centrifugation (200×g, 5 min, 4° C.). Membranes were collected from the supernatant fraction by centrifugation (32,000×g, 18 min, 4° C.), washed with ice-cold hypotonic buffer, and collected again by centrifugation (32,000×g, 18 min, 4° C.). The final membrane pellet was resuspended by sonication into a small volume of ice-cold binding buffer (˜1 ml for every 5 plates: 10 mM NaCl, 20 mM HEPES, 0.22 mM KH2PO4, 1.26 mM CaCl2, 0.81 mM MgSO4, pH 7.4). Protein concentration was measured by the Bradford method (Bradford, 1976) using Bio-Rad Reagent, with bovine serum albumin as a standard. Membranes were held on ice for up to one hour and used fresh, or flash-frozen and stored in liquid nitrogen.
Membranes were prepared similarly from 293, LM(tk-), and NIH-3T3 cells. To prepare membranes from baculovirus infected cells, 2×10^7 Sf21 cells were grown in 150 mm tissue culture dishes and infected with a high-titer stock of hY5BB3. Cells were incubated for 2-4 days at 27° C., no CO2 before harvesting and membrane preparation as described above.
Membrane suspensions were diluted in binding buffer supplemented with 0.1% bovine serum albumin to yield an optimal membrane protein concentration so that ^125I-PYY (or alternative radioligand such as ^125I-NPY, ^125I-PYY3-36, or ^125I-[Leu^31Pro^34]PYY) bound by membranes in the assay was less than 10% of ^125I-PYY (or alternative radioligand) delivered to the sample (100,000 dpm/sample=0.08 nM for competition binding assays). ^125I-PYY (or alternative radioligand) and peptide competitors were also diluted to desired concentrations in supplemented binding buffer. Individual samples were then prepared in 96-well polypropylene microtiter plates by mixing 125I-PYY (25 μL) (or alternative radioligand), competing peptides or supplemented binding buffer (25 μL), and finally, membrane suspensions (200 μL). Samples were incubated in a 30° C. water bath with constant shaking for 120 min. Incubations were terminated by filtration over Whatman GF/C filters (pre-coated with 1% polyethyleneimine and air-dried before use), followed by washing with 5 mL of ice-cold binding buffer. Filter-trapped membranes were impregnated with MeltiLex solid scintillant (Wallac, Turku, Finland) and counted for ^125I in a Wallac Beta-Plate Reader. Alternatively, incubations were carried out in GF/C filter plates (pre-coated with 1% polyethyleneimine and air-dried before use), followed by vacuum filtration and three washes of 300 μL of ice-cold binding buffer. 50 μL of UltimaGold (Packard) scintillant were added and counted for ^125I in a Wallac MicroBeta Trilux. […]
Background: In a radioligand displacement assay an active substance lowers the binding of a labelled ligand.
With `CS(=O)(=O)NC[C@H]1CC[C@H](Nc2nc(-c3ccccc3O)cs2)CC1` [Example 95, trans-4-(2-Hydroxy)phenyl-2-(4-methylsulfonylamino-methyl)-cyclohexylaminothiazole], the inhibitory constant (Ki) stood at 106 nM.
For the compound `CC(C)N(C=O)[C@H]1CC[C@H](CNc2nc(-c3ccccc3)cs2)CC1` [Example 99, trans-N-Isopropyl-N-(4-[(4-phenyl-1,3-thiazol-2-yl)amino]methylcyclohexyl)formamide], the inhibition constant Ki was determined as 45 nM.
The figure for `COc1cccc2c1OCCc1sc(N[C@H]3CC[C@H](CNS(C)(=O)=O)CC3)nc1-2` [Example 74, trans-1-Aza-4,5-dihydro-2-(4-methylsulfonylamino-methyl)-cyclohexylamino-7-methoxy-3-thia-benzo[e]-azulene] is 37 nM; for `CCN(C=O)[C@H]1CC[C@H](CNc2nc3c(s2)CCOc2ccccc2-3)CC1` [Example 87, trans-1-Aza-2-(4-(n-(ethyl) formamido)cyclohexyl)methyl-amino-4,5-dihydro-6-oxa-3-thia-benzo[e]azulene] it is 86 nM.
Next, `O=S(=O)(NCCCCNc1nc2c(s1)CCCc1ccc(F)cc1-2)c1cccc2ccccc12` [Example 8, 1-Aza-9-fluoro-4,5-dihydro-2-(4-(1-naphthyl)sulfonyl-amino)butylamino-3-thia-benzo[e]azulene]: 94 nM.
Next, `COCCN(C=O)[C@H]1CC[C@H](CNc2nc3c(s2)CCOc2ccccc2-3)CC1` [Example 86, N-{4-[(4,5-dihydrobenzo[2,3]oxepino[4,5-d][1,3]thiazol-2-ylamino)methyl]cyclohexyl}-N-(2-methoxyethyl)formamide]: 68 nM; `O=S(=O)(NC[C@H]1CC[C@H](Nc2nc3c(s2)CCCc2ccc(F)cc2-3)CC1)C(F)(F)F` [Example 41, trans-1-Aza-9-fluoro-2-{4-trifluoromethylsulfonyl-aminomethyl}cyclohexylamino-4,5-dihydro-3-thiabenzo[e]-azulene]: 30 nM.
On to `CCN(CC)S(=O)(=O)NCCCCCCNc1nc2c(s1)CCSc1ccccc1-2` [Example 101, N′-[6-(4,5-Dihydrobenzo[2,3]thiepino[4,5-d][1,3]thiazol-2-ylamino)hexyl]-N,N-diethylsulfamide], for which the Ki stood at 5.9 nM.
Next, `COP(=O)(N[C@H]1CC[C@H](CNc2nc3c(s2)CCCc2ccc(F)cc2-3)CC1)OC` [Example 67, trans-N2-(4-Dimethylphosphonylamino)cyclohexylmethyl-9-fluoro-5,6-dihydro-4H-benzo[6,7]cyclohepta[d][1,3]-thiazol-2-amine]: 5.5 nM; `COc1cccc2c1OCCc1sc(NC[C@H]3CC[C@H](NS(C)(=O)=O)CC3)nc1-2` [Example 65, trans-N2-(4-Methylsulfonylamino)cyclohexylmethyl-7-methoxy-4,5-dihydro-benzo[2,3]oxepino[4,5-d][1,3]-thiazol-2-amine hydrochloride]: 11.6 nM; `O=S(=O)(NC[C@H]1CC[C@H](Nc2nc3c(s2)CCCc2ccc(F)cc2-3)CC1)N1CCOCC1` [Example 76, trans-1-Aza-9-fluoro-4,5-dihydro-2-(4-(4-morpholinyl)-sulfonylaminomethyl)cyclohexylamino-3-thia-benzo[e]azulene]: 4.1 nM.
Next, `CCOC(=O)N[C@H]1CC[C@H](CNc2nc3c(s2)CCCc2ccc(F)cc2-3)CC1` [Example 68, trans-N2-(4-Ethoxycarbonylamino)cyclohexylmethyl-9-fluoro-5,6-dihydro-4H-benzo[6,7]cyclohepta[d][1,3]-thiazol-2-amine hydrochloride]: 4 nM; `O=S(=O)(NC[C@H]1CC[C@H](Nc2nc3c(s2)CCCc2ccc(F)cc2-3)CC1)c1cccnc1` [Example 59, trans-1-Aza-9-fluoro-4,5-dihydro-2-(4-(3-pyridyl)-sulfonylaminomethyl)cyclohexylamino-3-thia-benzo[e]-azulene]: 2.3 nM.
With `COc1ccc2c(c1)-c1nc(NC[C@H]3CC[C@H](NS(C)(=O)=O)CC3)sc1CCO2` [Example 63, trans-1-Aza-4,5-dihydro-9-methoxy-2-{4-methylsulfonyl-amino}cyclohexylmethylamino-6-oxa-3-thia-benzo[e]azulene], the inhibition constant (Ki) came to 31 nM.
Next, `CC(C)N(C=O)C[C@H]1CC[C@H](Nc2nc3c(s2)CCCc2ccc(F)cc2-3)CC1` [Example 83, trans-1-Aza-9-fluoro-4,5-dihydro-2-(4-(N-isopropyl-formamido)methyl)cyclohexylamino-3-thia-benzo[e]-azulene]: 12 nM; `COc1ccc(S(=O)(=O)N[C@H]2CC[C@H](Nc3nc4c(s3)CCCc3ccc(F)cc3-4)CC2)cc1` [Example 36, trans-1-Aza-9-fluoro-4,5-dihydro-2-(4-(4-methoxy-phenyl)sulfonylamino)cyclohexylamino-3-thia-benzo[e]-azulene]: 60 nM.
Next, `CCC(=O)NC[C@H]1CC[C@H](Nc2nc3c(s2)CCCc2ccc(F)cc2-3)CC1` [Example 75, trans-1-Aza-4,5-dihydro-2-(4-ethylcarbonylamino-methyl)-cyclohexylamino-9-fluoro-3-thia-benzo[e]-azulene]: 36 nM; `COCCOC(=O)NC[C@H]1CC[C@H](Nc2nc3c(s2)CCCc2ccc(F)cc2-3)CC1` [Example 77, trans-1-Aza-9-fluoro-4,5-dihydro-2-(4-(2-methoxy)-ethoxy-carbonylaminomethyl)cyclohexylamino-3-thia-benzo[e]azulene]: 14.6 nM; `CCCN(C=O)C[C@H]1CC[C@H](Nc2nc3c(s2)CCCc2ccc(F)cc2-3)CC1` [Example 82, trans-1-Aza-9-fluoro-4,5-dihydro-2-(4-(N-propyl-formamido)-methyl)cyclohexylamino-3-thia-benzo[e]-azulene]: 11.9 nM.
Next, `COc1cccc2c1OCCc1sc(NC[C@H]3CC[C@H](NS(=O)(=O)N(C)C)CC3)nc1-2` [Example 66, trans-1-Aza-4,5-dihydro-7-methoxy-2-{4-dimethylamino-sulfonylamino}cyclohexylmethylamino-6-oxa-3-thia-benzo[e]azulene]: 2 nM; `CC(C)(C)OC(=O)NC[C@H]1CC[C@H](Nc2nc3c(s2)CCSc2ccccc2-3)CC1` [Example 100, tert-Butyl N-{[4-(4,5-Dihydrobenzo[2,3]thiepino[4,5-d][1,3]thiazol-2-ylamino)cyclohexyl]methyl}carbamate]: 24 nM.
